pKi: −log10 of the molar value. Where two headings read alike, the source gives them in different places.
Molecular target: human orexin-2 receptor (Homo sapiens (Human), UniProt O43614)
Test: Human orexin 2 receptor radioligand binding ([3H]-EMPA competition)
Conditions: read-out: OR 2 Ki
[1] = HEK293 cells stably expressing human orexin-2 receptor, [3H]-EMPA 5 nM final, apparent Ki=IC50/(1+C/Kd), Kd=2 nM

Chain of human orexin-2 receptor (O43614 whole entry): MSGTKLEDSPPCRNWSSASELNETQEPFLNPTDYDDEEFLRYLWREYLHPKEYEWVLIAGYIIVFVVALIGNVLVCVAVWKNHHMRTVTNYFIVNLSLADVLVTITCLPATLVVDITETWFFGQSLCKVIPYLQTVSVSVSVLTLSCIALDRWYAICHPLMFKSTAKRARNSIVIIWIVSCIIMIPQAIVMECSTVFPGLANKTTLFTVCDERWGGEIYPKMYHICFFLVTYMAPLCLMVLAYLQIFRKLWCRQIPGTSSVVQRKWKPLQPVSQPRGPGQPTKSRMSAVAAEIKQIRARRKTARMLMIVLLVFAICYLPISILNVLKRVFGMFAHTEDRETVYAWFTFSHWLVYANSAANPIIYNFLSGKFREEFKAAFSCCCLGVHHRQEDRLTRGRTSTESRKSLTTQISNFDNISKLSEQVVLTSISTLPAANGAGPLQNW

| SMILES | pKi [1] | pKi |
| --- | --- | --- |
| Cc1cc(C)nc(N2CC3CN(C(=O)c4cccc(F)c4-c4ncccc4C)CC3C2)n1 (centres unmarked) [Example 371, (5-(4,6-Dimethylpyrimidin-2-yl)hexahydropyrrolo[3,4-c]pyrrol-2(1H)-yl)(3-fluoro-2-(3-methylpyridin-2-yl)phenyl)methanone] | 5.47 |  |
| Cc1cc(C)nc(N2CC3CN(C(=O)c4cccc(F)c4-c4ncccc4Cl)CC3C2)n1 (centres unmarked) [Example 372, (2-(3-Chloropyridin-2-yl)-3-fluorophenyl)(5-(4,6-dimethylpyrimidin-2-yl)hexahydropyrrolo[3,4-c]pyrrol-2(1H)-yl)methanone] | 6.96 |  |
| Cc1ccc(-c2c(F)cccc2C(=O)N2CC3CN(c4nc(C)cc(C)n4)CC3C2)nc1 (centres unmarked) [Example 374, (5-(4,6-Dimethylpyrimidin-2-yl)hexahydropyrrolo[3,4-c]pyrrol-2(1H)-yl)(3-fluoro-2-(5-methylpyridin-2-yl)phenyl)methanone] |  | 7.14 |
| Cc1cc(C)nc(N2CC3CN(C(=O)c4ncccc4-c4nc(C)no4)CC3C2)n1 (centres unmarked) [Example 386, 2-(4,6-Dimethylpyrimidin-2-yl)-5-{[3-(3-methyl-1,2,4-oxadiazol-5-yl)pyridin-2-yl]carbonyl}octahydropyrrolo[3,4-c]pyrrole] | 6.03 |  |
| COc1ccc(C(=O)N2CC3CN(c4cc(N(C)C)ncn4)CC3C2)c(-n2nccn2)c1 (centres unmarked) [Example 390, (5-(6-(Dimethylamino)pyrimidin-4-yl)hexahydropyrrolo[3,4-c]pyrrol-2(1H)-yl)(4-methoxy-2-(2H-1,2,3-triazol-2-yl)phenyl)methanone] | 6.72 |  |
| Cc1cccc(-c2ccc(F)cc2C(=O)N2CC3CN(c4nc(C)cc(C)n4)CC3C2)n1 (centres unmarked) [Example 399, (5-(4,6-Dimethylpyrimidin-2-yl)hexahydropyrrolo[3,4-c]pyrrol-2(1H)-yl)(5-fluoro-2-(6-methylpyridin-2-yl)phenyl)methanone] | 6.24 |  |
| Cc1ccnc(-c2ccc(F)cc2C(=O)N2CC3CN(c4nc(C)cc(C)n4)CC3C2)c1 (centres unmarked) [Example 400, (5-(4,6-Dimethylpyrimidin-2-yl)hexahydropyrrolo[3,4-c]pyrrol-2(1H)-yl)(5-fluoro-2-(4-methylpyridin-2-yl)phenyl)methanone] | 6.29 |  |
| Cc1ccc(-c2ccc(F)cc2C(=O)N2CC3CN(c4nc(C)cc(C)n4)CC3C2)nc1 (centres unmarked) [Example 401, (5-(4,6-Dimethylpyrimidin-2-yl)hexahydropyrrolo[3,4-c]pyrrol-2(1H)-yl)(5-fluoro-2-(5-methylpyridin-2-yl)phenyl)methanone] | 6.08 |  |
| Cc1cc(C)nc(N2CC3CN(C(=O)c4cc(F)ccc4-c4ncccc4F)CC3C2)n1 (centres unmarked) [Example 402, (5-(4,6-Dimethylpyrimidin-2-yl)hexahydropyrrolo[3,4-c]pyrrol-2(1H)-yl)(5-fluoro-2-(3-fluoropyridin-2-yl)phenyl)methanone] | 6.92 |  |
| Cc1cc(C)nc(N2CC3CN(C(=O)c4cc(F)ccc4-c4ccccn4)CC3C2)n1 (centres unmarked) [Example 403, (5-(4,6-Dimethylpyrimidin-2-yl)hexahydropyrrolo[3,4-c]pyrrol-2(1H)-yl)(5-fluoro-2-(pyridin-2-yl)phenyl)methanone] | 6.74 |  |

Continued by rising pKi [1], values first:

| pKi [1] | SMILES | pKi |
| --- | --- | --- |
| 7.38 | Cc1ccnc(-c2c(F)cccc2C(=O)N2CC3CN(c4nc(C)cc(C)n4)CC3C2)c1 (centres unmarked) [Example 373, (5-(4,6-Dimethylpyrimidin-2-yl)hexahydropyrrolo[3,4-c]pyrrol-2(1H)-yl)(3-fluoro-2-(4-methylpyridin-2-yl)phenyl)methanone] |  |
| 7.38 | CCc1c(C)nc(N2CC3CN(C(=O)c4ncccc4-n4nccn4)CC3C2)nc1C (centres unmarked) [Example 385, 2-(5-Ethyl-4,6-dimethylpyrimidin-2-yl)-5-{[3-(2H-1,2,3-triazol-2-yl)pyridin-2-yl]carbonyl}octahydropyrrolo[3,4-c]pyrrole] |  |
| 7.52 | COc1ccc(C(=O)N2CC3CN(c4ncc5cc(F)ccc5n4)CC3C2)c(-n2nccn2)c1 (centres unmarked) [Example 388] |  |
| 7.55 | COc1ccc(C(=O)N2CC3CN(c4cc(N(C)C)nc(C)n4)CC3C2)c(-n2nccn2)c1 (centres unmarked) [Example 391, (5-(6-(Dimethylamino)-2-methylpyrimidin-4-yl)hexahydropyrrolo[3,4-c]pyrrol-2(1H)-yl)(4-methoxy-2-(2H-1,2,3-triazol-2-yl)phenyl)methanone] |  |
| 7.66 | COc1ccc(C(=O)N2CC3CN(c4cnc5cc(F)c(F)cc5n4)CC3C2)c(-n2nccn2)c1 (centres unmarked) [Example 389, (5-(6,7-Difluoroquinoxalin-2-yl)hexahydropyrrolo[3,4-c]pyrrol-2(1H)-yl)(4-methoxy-2-(2H-1,2,3-triazol-2-yl)phenyl)methanone] |  |
| 7.68 | Cc1cc(C)nc(N2CC3CN(C(=O)c4cccc(F)c4-c4ncccc4F)CC3C2)n1 (centres unmarked) [Example 375, (5-(4,6-Dimethylpyrimidin-2-yl)hexahydropyrrolo[3,4-c]pyrrol-2(1H)-yl)(3-fluoro-2-(3-fluoropyridin-2-yl)phenyl)methanone] |  |
| 7.72 | Cc1cc(C)nc(N2CC3CN(C(=O)c4cc(F)ccc4-c4ncco4)CC3C2)n1 (centres unmarked) [Example 404, (5-(4,6-Dimethylpyrimidin-2-yl)hexahydropyrrolo[3,4-c]pyrrol-2(1H)-yl)(5-fluoro-2-(oxazol-2-yl)phenyl)methanone] |  |
| 7.77 | Cc1cc(C)nc(N2CC3CN(C(=O)c4cccc(F)c4-c4ncco4)CC3C2)n1 (centres unmarked) [Example 376, (5-(4,6-Dimethylpyrimidin-2-yl)hexahydropyrrolo[3,4-c]pyrrol-2(1H)-yl)(3-fluoro-2-(oxazol-2-yl)phenyl)methanone] |  |
| 7.77 | COc1ccc(C(=O)N2CC3CN(c4ncc(F)c(C)n4)CC3C2)c(-n2nccn2)c1 (centres unmarked) [Example 377, 2-(5-Fluoro-4-methylpyrimidin-2-yl)-5-{[4-methoxy-2-(2H-1,2,3-triazol-2-yl)phenyl]carbonyl}octahydropyrrolo[3,4-c]pyrrole] |  |
| 7.80 | O=C(c1cccc(F)c1-c1ncccn1)N1CC2CN(c3cnc4cc(F)c(F)cc4n3)CC2C1 (centres unmarked) [Example 387, (5-(6,7-Difluoroquinoxalin-2-yl)hexahydropyrrolo[3,4-c]pyrrol-2(1H)-yl)(3-fluoro-2-(pyrimidin-2-yl)phenyl)methanone] |  |
| 7.82 | COc1ccc(C(=O)N2CC3CN(c4ncc(C)c(C)n4)CC3C2)c(-n2nccn2)c1 (centres unmarked) [Example 380, 2-(4,5-Dimethylpyrimidin-2-yl)-5-{[4-methoxy-2-(2H-1,2,3-triazol-2-yl)phenyl]carbonyl}octahydropyrrolo[3,4-c]pyrrole] |  |
| 8.00 | COc1ccc(C(=O)N2CC3CN(c4ncc(Cl)c(C)n4)CC3C2)c(-n2nccn2)c1 (centres unmarked) [Example 378, 2-(5-Chloro-4-methylpyrimidin-2-yl)-5-{[4-methoxy-2-(2H-1,2,3-triazol-2-yl)phenyl]carbonyl}octahydropyrrolo[3,4-c]pyrrole] |  |
| 8.05 | COc1ccc(C(=O)N2CC3CN(c4nc(C)c(F)c(C)n4)CC3C2)c(-n2nccn2)c1 (centres unmarked) [Example 379, 2-(5-Fluoro-4,6-dimethylpyrimidin-2-yl)-5-{[4-methoxy-2-(2H-1,2,3-triazol-2-yl)phenyl]carbonyl}octahydropyrrolo[3,4-c]pyrrole] |  |
